In patent US8609639B2, “Stat3 inhibitor having anti-cancer activity and methods” (University of South Florida, priority 2006, dated 2013):
Residues, ends and D or L forms follow the SMILES beside them. *: point of attachment. Cbz = O=C(OCc1ccccc1)*

Key:
[1] = test system: Stat3-YFP in NIH3T3/v-Src/Stat3-YFP fibroblasts; assay: Fluorescence and confocal microscopy of Stat3-YFP signal; assay type: cell-based, mouse; parameters: Stat3-YFP fluorescence signal: dose or concentration left out as unconfirmed; settings: for aggregated bodies (aggresomes) of Stat3-YFP: within 5 h of treatment, laser scanning confocal microscopy; for Stat3-YFP fluorescence signal: S3I-M2001, loss evident from 2-5 h, MG132 alone
Method: NIH3T3/vSrc cells were either stably transfected with Stat3-YFP construct (23), or growing in 96-well plates on chamber slides were transiently transfected with the Stat3-YFP plasmid (23) using Lipofectamine 2000 for 24 h according to the manufacturer's protocol (Roche), treated with or without S3I-M2001 for different times, and examined under Nikon Eclipse TE200 fluorescence microscope (Nikon). Images were captured and processed by NIKON NIS element-Basic research software.
Specimens were then washed 5 times with PBS, covered with cover slides with [sequence] mounting medium containing DAPI, and examined immediately under Leica TCS SP5 confocal microscope (Germany) at appropriate wavelengths depending on GFP or YFP. Images were captured and processed using the Leica TCS SP 5 software.

[2] = test system: GFP in NIH3T3/v-Src/GFP fibroblasts
Panc-1 [3] = assay: Cell migration assay (Bio-Coat chambers); assay type: cell-based, human; parameters: dose or concentration left out as unconfirmed; settings: S3I-M2001, 24 h
Method: (§1) Cell migration experiments were carried out using Bio-Coat migration chambers (Becton Dickinson, Franklin, N.J.) of 24-well companion plates with cell culture inserts containing […] pore size filters, according to the manufacturer's protocol. […] After 24-h incubation (37° C., 5% CO2), the filters were removed and the upper surface was wiped with a cotton-tipped applicator to remove non-migratory cells. Cells that had migrated through the filter pores and attached to bottom surface of the filter were fixed and stained. The membranes were mounted on glass slides and cells from 10 random microscopic fields (×400 magnification) were counted. Cell invasion experiments were performed using same Bio-Coat invasion chambers (Becton Dickenson), as already described, except that here, filters ([…]) were used coated with the basement membrane matrigel. Percent inhibition is calculated as 100−y, where y equals residual number of stained cells in the treated/total number in the control ×100.

MDA-MB-231 [4] = assay: Cell migration assay (Bio-Coat chambers); assay type: cell-based, human; parameters: dose or concentration left out as unconfirmed; settings: S3I-M2001, 24 h
Method: as §1

Stat3:Stat3 dimer = target: T1, Stat3:Stat3 dimer (Homo sapiens, UniProt P40763); assay: Dissociation-reassociation analysis with EMSA (pooled lysates of activated Stat1 and Stat3); assay type: biochemical; settings: pooled lysates of activated Stat1 and Stat3, increasing concentration
T1 construct: made in house; host or cells: Sf-9 insect cells (baculovirus; co-infected with Jak1 and c-Src)
From the text: Infect of Sf-9 cells with Stat1, Stat3, Jak1, and c-Src recombinant baculoviruses and preparation of the cell lysates containing activated Stat1 or Stat3 have been previously described (9, 21).
In the previously reported dissociation-reassociation analysis (9, 10, 20), two independently-prepared cell lysate, one containing only activated Stat3:Stat3 dimer and the other containing only activated Stat1:Stat1 dimer (21), were mixed together and pre-treated with or without increasing concentration of S3I-M2001 and subjected to STAT DNA-binding assay with EMSA analysis.
The dissociation-reassociation analysis with EMSA analysis was performed, as previously done (10, 20).

[5] = test system: v-Src-induced Stat3-dependent pLucTKS3 luciferase reporter; assay: Transient transfection luciferase reporter, Stat3-dependent; assay type: cell-based, mouse; settings: NIH3T3 fibroblasts co-transfected with v-Src
[6] = target: T2, Stat3 ubiquitination in NIH3T3/v-Src fibroblasts (Mus musculus, UniProt P42227); assay: Immunoblotting for ubiquitin of Stat3 immunoprecipitates; assay type: cell-based; settings: up to 24 h treatment
T2 construct: endogenous in cells; host or cells: NIH3T3/v-Src
From the text: (§2) Whole-cell lysates prepared in boiling SDS sample-loading buffer. i.p. from lysates using monoclonal anti-Stat3 antibody (Cell Signaling Technology), and the probing of nitrocellulose membranes with primary antibodies and detection of horseradish peroxidase-conjugated secondary antibodies by enhanced chemiluminescence (Amersham Biosciences) were done, as previously described (13, 17, 19, 21). The probes used were anti-Stat3 (Santa Cruz), anti-pTyr705Stat3 (Cell Signaling Technology), anti-YFP antibodies (Santa Cruz), anti-Bcl-xL, anti-pSrc, anti-Src, anti-pJak1, anti-Jak1, anti-pEr1/2 and anti-Erk1/2, and b-actin (Cell Signaling Technology).

[7] = test system: NIH3T3/v-Src and Panc-1 cells; assay: Soft-agar colony formation assay, cells with active Stat3; assay type: cell-based, mouse, human; settings: treated every three days
Method: (§3) Colony formation assays were carried out in six-well dishes and colonies were enumerated as previously described (19). Treatment with S3I-M2001 was initiated 1 day after seeding cells in soft-agar suspension by adding […] of medium with or without compound, and repeated every three days, until large colonies were evident.

Panc-1 [8] = assay: Matrigel invasion assay; assay type: cell-based, human; parameters: dose or concentration left out as unconfirmed; settings: matrigel-coated filters, 24 h
Method: as §1

MDA-MB-231 [9] = assay: Matrigel invasion assay; assay type: cell-based, human; parameters: dose or concentration left out as unconfirmed; settings: matrigel-coated filters, 24 h
Method: as §1

[10] = test system: MDA-MB-435, MDA-MB-231, Panc-1 cancer cells and NIH3T3/v-Src fibroblasts; assay: WST-1 cell viability assay, cells harbouring constitutively-active Stat3; assay type: cell-based, human, mouse; settings: WST-1 and trypan blue exclusion/cell counting
Method: (§4) In some cases, cells were first transfected with the plasmid for the Stat3 SH2 (ST3-SH2) domain or mock-transfected (pcDNA3 empty vector) for 24 h or untransfected prior to treatment with S3I-M2001 for an additional 24-48 h. Cells were then detached and analyzed by Annexin V binding (BD Biosciences, San Diego) according to the manufacturer's protocol and Flow Cytometry to quantify the percent apoptosis.

[11] = test system: normal NIH3T3, MCF-10A, MDA-MB-453, HUVEC, HAEC and HL-60 cells; assay: TUNEL and Annexin V apoptosis, cells without aberrant Stat3; assay type: cell-based, mouse, human; settings: cells that do not contain aberrant Stat3
Method: as §4

[12] = test system: pJak1, pSrc and pErk1/2 (MAPKs); assay: Western blot of whole-cell lysates for non-Stat3 signalling proteins; assay type: cell-based, mouse; settings: NIH3T3/v-Src fibroblasts
From the text: as §2

NIH3T3/v-Src [13] = assay: Matrigel invasion assay; assay type: cell-based, mouse; parameters: dose or concentration left out as unconfirmed; settings: matrigel-coated filters, 24 h
Method: as §1

[14] = test system: NIH3T3/v-Src, MDA-MB-231 and MDA-MB-435 cells; assay: TUNEL and Annexin V binding/Flow Cytometry apoptosis, cells harbouring aberrant Stat3; assay type: cell-based, mouse, human; parameters: apoptosis (Annexin V) after transfection with Stat3 SH2 domain: dose or concentration left out as unconfirmed
Method: as §4

Stat3:Stat3 = target: T3, Stat3:Stat3 (Mus musculus, UniProt P42227); assay: STAT DNA-binding assay/EMSA in nuclear extracts (hSIE probe); assay type: biochemical; settings: from EMSA IC50 values
T3 construct: Nuclear extract preparations from v-Src-transformed (NIH3T3/v-Src) or EGF-stimulated NIH3T3/hEGFR fibroblasts, or tumor cell lines were subjected to EMSA; endogenous in cells; host or cells: NIH3T3/v-Src or EGF-stimulated NIH3T3/hEGFR fibroblasts (nuclear extracts)
Method: (§5) Nuclear extract preparation from cells and EMSA were carried out as previously described (9-12, 16, 18, 40). Nuclear extract preparations from v-Src-transformed (NIH3T3/v-Src) or EGF-stimulated NIH3T3/hEGFR fibroblasts, or tumor cell lines were subjected to EMSA. The 32P-labeled oligonucleotide probe used was hSIE (high affinity sis-inducible element from the c-fos gene, m67 variant, as reported by Wagner et al. (42), and that binds Stat1 and Stat3. Except where indicated, inhibitor compound was pre-incubated with the nuclear extract for 30 min at room temperature prior to incubation with radiolabeled hSIE probe. Where necessary, cells were stimulated with recombinant human EGF (rhEGF) for 5-15 min prior to preparation of nuclear extracts. Bands corresponding to DNA-binding activities were scanned and quantified for each concentration of compound and plotted as percent of control (vehicle) against concentration of compound, from which the IC50 values were derived, as previously reported (9, 10, 42).

[15] = test system: constitutively-active Stat3; assay: Constitutive Stat3 Tyr phosphorylation and activation in cells (EMSA, Western blot, immunocytostaining); assay type: cell-based, mouse, human; settings: NIH3T3/v-Src, MDA-MB-231 and MDA-MB-435 cell lines
Method: as §5, with “42). […]” for “42).”

NIH3T3/v-Src [16] = assay: Cell migration assay (Bio-Coat chambers); assay type: cell-based, mouse; parameters: dose or concentration left out as unconfirmed; settings: S3I-M2001, 24 h
Method: as §1

Lck SH2-GST = Lck SH2-GST (Homo sapiens, UniProt P06239); assay: Lck-SH2 domain ELISA assay; assay type: binding; parameters: dose or concentration left out as unconfirmed; settings: S3I-M2001
Method: An ELISA assay for the binding of Lck-SH2 domain with its conjugate phosphopeptide, biotinyl-e-Ac-EPQpYEEIEL-OH, was carried out, as previously described (13, 22). Absorbance reading (450 nm) for the peroxidase reaction was determined with an ELISA plate reader.

[17] = test system: MDA-MB-231 tumor xenografts; assay: Human breast tumor xenografts in athymic nude mice; assay type: in vivo, mouse
Method: Six-week-old female athymic nude mice were purchased from Harlan and maintained in the institutional animal facilities approved by the American Association for Accreditation of Laboratory Animal Care. Athymic nude mice were injected subcutaneously in the left flank area with 5×10^6 human breast cancer MDA-MB-231 cells in […] of PBS. After 5 to 10 days, tumors of a diameter of 3 mm were established. Animals were grouped so that the mean tumor sizes in all groups were nearly identical, given S3I-[…] i.v. at 5, 10 and 20 mg/kg every 2 or every 3 days for 26 days and monitored every 2 or 3 days, and tumor sizes were measured with calipers. Tumor volume was calculated according to the formula V=0.52×a2×b, where a, smallest superficial diameter, b, largest superficial diameter.

NIH3T3/v-Ras = assay: Soft-agar colony formation assay, v-Ras transformed fibroblasts; assay type: cell-based, mouse; settings: NIH3T3/v-Ras lacking constitutively-active Stat3
Method: as §3

[18] = test system: Stat3 nuclear localization in EGF-stimulated NIH3T3/hEGFR; assay: Immunofluorescence/confocal microscopy of Stat3 nuclear localization; assay type: cell-based, mouse; parameters: dose or concentration left out as unconfirmed; settings: for 3 h prior to rhEGF stimulation for 10 min
Method: NIH3T3/hEGFR cells were grown in multi-cell plates and treated with or without S3I-M2001 for 3 h prior to stimulation by rhEGF (10 ng/ml) for 10 min or NIH3T3/vSrc cells were grown in multi-cell plates or chamber slides and cells were fixed with 4% paraformaldehyde for 15 min. Cells were washed 3 times in PBS, permeabilized with 0.2% Triton X for 5 min, and further washed 3-4 times with PBS. Specimens were then blocked in 5% goat serum for 60 min and incubated with Stat3 (Cell Signaling Technology) or Hook2 (Santa Cruz, Santa Cruz, Calif.) antibody at 1:50 dilution at 4° C. overnight. Subsequently, cells were rinsed 4-5 times in PBS, incubated with Alexa fluor 488 rabbit antibody (Molecular probe, Eugene, Oreg.) for (Stat3 detection) or NL637 goat antibody (R&D Systems, Minneapolis, Minn.) for Hook2 for 1-2 h at room temperature in the dark. Specimens were then washed 5 times with PBS, covered with cover slides with [sequence] mounting medium containing DAPI, and examined immediately under Leica TCS SP5 confocal microscope (Germany) at appropriate wavelengths depending on GFP or YFP. Images were captured and processed using the Leica TCS SP 5 software.

[19] = test system: Bcl-xL expression in NIH3T3/v-Src and MDA-MB-435 cells; assay: Western blot analysis for Bcl-xL; assay type: cell-based, mouse, human
From the text: as §2

[20] = target: Stat3 activation over that of Stat1 (Mus musculus, UniProt P42227); assay: rhEGF-induced STAT activation in NIH3T3/hEGFR fibroblasts (EMSA); assay type: cell-based
Method: as §5

T2 sequence (P42227 whole entry): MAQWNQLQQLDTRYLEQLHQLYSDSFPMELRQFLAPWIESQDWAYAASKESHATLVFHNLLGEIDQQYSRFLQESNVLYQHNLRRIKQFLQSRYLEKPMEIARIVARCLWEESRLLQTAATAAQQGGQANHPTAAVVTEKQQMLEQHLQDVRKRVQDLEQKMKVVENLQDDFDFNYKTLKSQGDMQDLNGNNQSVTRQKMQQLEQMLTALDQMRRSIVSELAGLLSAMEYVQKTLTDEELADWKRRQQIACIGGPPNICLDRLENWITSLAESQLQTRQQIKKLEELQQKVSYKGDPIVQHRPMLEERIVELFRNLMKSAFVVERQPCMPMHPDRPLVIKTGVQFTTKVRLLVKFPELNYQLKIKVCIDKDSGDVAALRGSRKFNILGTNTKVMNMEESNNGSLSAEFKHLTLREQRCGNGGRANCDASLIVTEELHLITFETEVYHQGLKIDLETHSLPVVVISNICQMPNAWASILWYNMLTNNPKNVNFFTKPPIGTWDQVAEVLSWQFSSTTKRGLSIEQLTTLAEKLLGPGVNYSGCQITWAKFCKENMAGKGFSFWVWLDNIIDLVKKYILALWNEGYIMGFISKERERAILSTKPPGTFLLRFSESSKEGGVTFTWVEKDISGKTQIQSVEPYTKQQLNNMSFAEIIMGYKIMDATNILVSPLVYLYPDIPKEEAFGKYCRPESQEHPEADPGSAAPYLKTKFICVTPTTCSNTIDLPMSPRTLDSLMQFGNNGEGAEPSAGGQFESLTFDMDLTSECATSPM
Chain of Stat3 activation over that of Stat1 (P42227 whole entry): as above
Chain of Lck SH2-GST (P06239 127-224 limits assumed): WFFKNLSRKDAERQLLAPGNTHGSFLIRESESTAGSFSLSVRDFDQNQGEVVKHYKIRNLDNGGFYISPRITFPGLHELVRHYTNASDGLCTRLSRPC
T1 sequence (P40763 whole entry): as the sequence (P42227 whole entry) above, with D760E counted along it
T3 sequence (P42227 2-770 limits assumed): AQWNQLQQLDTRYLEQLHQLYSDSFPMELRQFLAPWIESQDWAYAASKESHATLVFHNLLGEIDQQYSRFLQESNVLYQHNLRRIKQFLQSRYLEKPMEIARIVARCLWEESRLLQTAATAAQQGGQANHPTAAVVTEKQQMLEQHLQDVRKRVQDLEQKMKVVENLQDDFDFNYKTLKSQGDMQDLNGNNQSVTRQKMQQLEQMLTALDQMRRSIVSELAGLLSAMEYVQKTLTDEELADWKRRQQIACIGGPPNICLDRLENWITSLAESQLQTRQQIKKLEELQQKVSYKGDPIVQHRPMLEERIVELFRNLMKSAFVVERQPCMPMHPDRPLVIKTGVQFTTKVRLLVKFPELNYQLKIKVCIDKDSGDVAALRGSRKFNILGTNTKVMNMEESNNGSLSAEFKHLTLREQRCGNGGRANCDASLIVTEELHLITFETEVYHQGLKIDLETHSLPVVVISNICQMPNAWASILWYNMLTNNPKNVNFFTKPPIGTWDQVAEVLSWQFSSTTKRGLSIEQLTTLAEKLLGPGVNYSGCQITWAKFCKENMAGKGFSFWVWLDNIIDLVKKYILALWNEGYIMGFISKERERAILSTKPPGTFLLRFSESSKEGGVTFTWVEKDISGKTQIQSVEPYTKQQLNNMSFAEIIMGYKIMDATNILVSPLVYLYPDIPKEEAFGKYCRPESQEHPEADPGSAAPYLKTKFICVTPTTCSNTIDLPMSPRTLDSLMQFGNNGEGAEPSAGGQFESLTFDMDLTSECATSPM

## N.N.[Cl][Pt][Cl] [Cisplatin, reference compound]
[1]
  aggregated bodies (aggresomes) of Stat3-YFP: no such effect

## CC(C)C[C@@H](C=O)NC(=O)[C@H](CC(C)C)NC(=O)[C@H](CC(C)C)NC(=O)OCc1ccccc1 [MG132, reference compound] (Cbz-Leu-Leu-Leu-aldehyde)
[1]
  Stat3-YFP fluorescence signal: no appreciable effect
[2]
  GFP signal change: no evidence of GFP signal change

## CCCCCCNC(=O)c1nc(-c2cccc3ccccc23)oc1Cc1ccc(OP(=O)(O)O)cc1 [S3I-M2001]
Panc-1 [3]
  inhibition of migration: 21%
MDA-MB-231 [4]
  inhibition of migration: 37%
Stat3:Stat3 dimer
  Stat3:Stat3 DNA-binding activity in pooled lysates: concentration-dependent diminution
[5]
  Stat3-dependent pLucTKS3 luciferase reporter activity: inhibited
[6]
  level of Stat3 ubiquitination: strong and time-dependent increase
[7]
  growth in soft-agar: blocked growth in soft-agar
Panc-1 [8]
  inhibition of invasion: 38%
MDA-MB-231 [9]
  inhibition of invasion: 48%
[10]
  selective loss of viability of cells with constitutively-active Stat3 versus cells lacking it: greater than 2 fold
[11]
  apoptosis (TUNEL, Annexin V): minimal effect
[12]
  pJak1, pSrc and pErk1/2 levels: not repressed
NIH3T3/v-Src [13]
  inhibition of invasion: 28%
[1]
  Stat3-YFP fluorescence signal: time-dependent decrease
  aggregated bodies (aggresomes) of Stat3-YFP: accompanied by aggregated bodies
[14]; 3T3/v-Src/ST3-SH2 versus mock-transfected or untransfected, 24 h
  apoptosis (Annexin V) after transfection with Stat3 SH2 domain: diminished apoptosis
[14]; NIH3T3/v-Src, MDA-MB-231, MDA-MB-435, 48 h (TUNEL)
  apoptosis (TUNEL, Annexin V): strong apoptosis
Stat3:Stat3
  preferential inhibition of Stat3 activity over Stat1: 2 fold
[15]
  constitutive Stat3 Tyr phosphorylation and activation: inhibited constitutive Stat3 Tyr phosphorylation and activation
NIH3T3/v-Src [16]
  inhibition of migration: 76%
Lck SH2-GST
  binding of Lck SH2-GST to phosphopeptide biotinyl-e-Ac-EPQpYEEIEL-OH: minimal effect
[17]; highest dose applied, 20 mg kg-1 i.v.
  viability of animals: remained viable
[17]; i.v. 5, 10 and 20 mg kg-1 every 2 or 3 days for 26 days
  growth of tumors (tumor volume): strongly inhibited growth of tumors
[17]; tumors T1 and T2, 3 days after last 5 mg kg-1 injection, EMSA and Western blot
  Stat3 activity and pTyr levels in residual tumor tissue: abrogated Stat3 activity and pTyr levels
[2]
  GFP signal change: no evidence of GFP signal change
NIH3T3/v-Ras
  growth in soft-agar: no appreciable effects
[18]
  EGF-induced nuclear staining of Stat3: significantly attenuated
[19]
  Bcl-xL expression: diminished Bcl-xL expression
[20]
  rhEGF-induced Stat3 activation versus Stat1: preferentially inhibited
